Measurements taken from the NIST ThermoML archive (doi:10.1021/je5010214).
Numbers after ± are expanded uncertainties.

Conditions: Liquid, Vibrating tube method

CC(C)CO [2-methyl-1-propanol]
Conditions	mass density [kg/m3]
283.15 K, 89.4 kPa	809.726 ± 0.81
283.15 K, 478.2 kPa	810.123 ± 0.81
283.15 K, 489.9 kPa	810.142 ± 0.81
283.15 K, 930.2 kPa	810.437 ± 0.81
283.15 K, 1027.3 kPa	810.557 ± 0.81
283.15 K, 2172.1 kPa	811.348 ± 0.81
283.15 K, 2992.9 kPa	811.865 ± 0.81
283.15 K, 4993.8 kPa	813.245 ± 0.81
283.15 K, 6906.9 kPa	814.669 ± 0.81
283.15 K, 8995.7 kPa	816.167 ± 0.81
283.15 K, 10003 kPa	816.885 ± 0.82
283.15 K, 12183 kPa	818.287 ± 0.82
283.15 K, 14910 kPa	820.439 ± 0.82
283.15 K, 17915 kPa	822.056 ± 0.83
283.15 K, 20110 kPa	823.875 ± 0.83
283.15 K, 22168 kPa	825.177 ± 0.83
283.15 K, 24886 kPa	826.625 ± 0.84
283.15 K, 27713 kPa	828.29 ± 0.84
283.15 K, 30148 kPa	829.717 ± 0.85
283.15 K, 32117 kPa	830.745 ± 0.85
283.15 K, 33086 kPa	831.522 ± 0.85
283.15 K, 33288 kPa	831.507 ± 0.85
283.15 K, 34077 kPa	832.073 ± 0.85
283.15 K, 35107 kPa	832.469 ± 0.85
283.15 K, 38030 kPa	834.322 ± 0.86
283.15 K, 44591 kPa	837.752 ± 0.87
283.15 K, 54994 kPa	843.308 ± 0.89
283.15 K, 57756 kPa	844.723 ± 0.9
283.15 K, 59886 kPa	845.575 ± 0.9
283.15 K, 61822 kPa	846.524 ± 0.91
283.15 K, 64894 kPa	848.158 ± 0.91
283.16 K, 289.9 kPa	810.056 ± 0.81
283.16 K, 39967 kPa	835.34 ± 0.86
283.16 K, 41406 kPa	835.909 ± 0.87
283.16 K, 48034 kPa	839.7 ± 0.88
283.16 K, 49830 kPa	840.462 ± 0.88
283.16 K, 51952 kPa	841.796 ± 0.89
283.16 K, 66072 kPa	848.566 ± 0.91
288.15 K, 85.3 kPa	806.159 ± 0.81
288.15 K, 351.1 kPa	806.381 ± 0.81
288.15 K, 718.6 kPa	806.519 ± 0.81
288.15 K, 928.3 kPa	806.632 ± 0.81
288.15 K, 1132.3 kPa	807.006 ± 0.81
288.15 K, 1931.6 kPa	807.42 ± 0.81
288.15 K, 3433.9 kPa	808.429 ± 0.81
288.15 K, 5023.9 kPa	809.62 ± 0.81
288.15 K, 6893.9 kPa	810.983 ± 0.81
288.15 K, 8406.4 kPa	812.175 ± 0.81
288.15 K, 12498 kPa	814.345 ± 0.82
288.15 K, 13061 kPa	815.035 ± 0.82
288.15 K, 15159 kPa	815.414 ± 0.82
288.15 K, 16159 kPa	816.818 ± 0.82
288.15 K, 17078 kPa	817.715 ± 0.83
288.15 K, 19062 kPa	818.283 ± 0.83
288.15 K, 20120 kPa	819.399 ± 0.83
288.15 K, 21983 kPa	820.3 ± 0.83
288.15 K, 22948 kPa	821.319 ± 0.84
288.15 K, 24955 kPa	821.837 ± 0.84
288.15 K, 31002 kPa	825.774 ± 0.85
288.15 K, 36056 kPa	828.477 ± 0.86
288.15 K, 38602 kPa	829.859 ± 0.86
288.15 K, 40698 kPa	831.363 ± 0.87
288.15 K, 42984 kPa	832.313 ± 0.87
288.15 K, 44991 kPa	833.694 ± 0.88
288.15 K, 46862 kPa	834.848 ± 0.88
288.15 K, 49740 kPa	835.692 ± 0.89
288.15 K, 53748 kPa	837.321 ± 0.9
288.15 K, 55203 kPa	839.369 ± 0.9
288.15 K, 60810 kPa	841.135 ± 0.91
288.15 K, 65611 kPa	844.144 ± 0.92
288.16 K, 549.3 kPa	806.494 ± 0.81
288.16 K, 9959.1 kPa	813.184 ± 0.82
288.16 K, 27092 kPa	823.174 ± 0.84
288.16 K, 29078 kPa	824.509 ± 0.85
288.16 K, 33729 kPa	826.936 ± 0.85
288.16 K, 57016 kPa	840.129 ± 0.9
288.16 K, 62338 kPa	843.086 ± 0.91
293.15 K, 63.4 kPa	802.054 ± 0.81
293.15 K, 194.5 kPa	802.316 ± 0.81
293.15 K, 662.6 kPa	802.599 ± 0.81
293.15 K, 5367.8 kPa	806.019 ± 0.81
293.15 K, 5979.3 kPa	806.327 ± 0.81
293.15 K, 8031.4 kPa	807.842 ± 0.81
293.15 K, 12279 kPa	811.587 ± 0.82
293.15 K, 16110 kPa	814.191 ± 0.83
293.15 K, 18001 kPa	815.385 ± 0.83
293.15 K, 30253 kPa	822.999 ± 0.85
293.15 K, 32967 kPa	824.811 ± 0.85
293.15 K, 42984 kPa	830.218 ± 0.87
293.15 K, 44913 kPa	831.278 ± 0.88
293.15 K, 47933 kPa	833.008 ± 0.88
293.15 K, 50078 kPa	834.047 ± 0.89
293.16 K, 310.4 kPa	802.406 ± 0.81
293.16 K, 463.5 kPa	802.612 ± 0.81
293.16 K, 1059.7 kPa	802.921 ± 0.81
293.16 K, 2037.1 kPa	803.747 ± 0.81
293.16 K, 2922 kPa	804.089 ± 0.81
293.16 K, 3431.5 kPa	804.593 ± 0.81
293.16 K, 5298.8 kPa	805.894 ± 0.81
293.16 K, 7111.4 kPa	807.238 ± 0.81
293.16 K, 9968.5 kPa	809.474 ± 0.82
293.16 K, 14057 kPa	812.743 ± 0.82
293.16 K, 20853 kPa	817.066 ± 0.83
293.16 K, 22118 kPa	818.157 ± 0.83
293.16 K, 24057 kPa	819.188 ± 0.84
293.16 K, 25922 kPa	820.412 ± 0.84
293.16 K, 27187 kPa	821.228 ± 0.84
293.16 K, 34602 kPa	825.683 ± 0.86
293.16 K, 38051 kPa	827.567 ± 0.86
293.16 K, 40103 kPa	828.763 ± 0.87
293.16 K, 52135 kPa	835.387 ± 0.89
293.16 K, 55036 kPa	836.79 ± 0.9
293.16 K, 58004 kPa	838.271 ± 0.91
293.16 K, 60107 kPa	839.502 ± 0.91
293.16 K, 62061 kPa	840.325 ± 0.91
293.16 K, 66037 kPa	842.335 ± 0.92
298.15 K, 122.4 kPa	798.281 ± 0.81
298.15 K, 162.6 kPa	798.371 ± 0.81
298.15 K, 405.5 kPa	798.562 ± 0.81
298.15 K, 632.8 kPa	798.678 ± 0.81
298.15 K, 956.4 kPa	798.832 ± 0.81
298.15 K, 6988.8 kPa	803.491 ± 0.81
298.15 K, 14555 kPa	809.311 ± 0.82
298.15 K, 18284 kPa	812.068 ± 0.83
298.15 K, 20164 kPa	813.104 ± 0.83
298.15 K, 22781 kPa	814.894 ± 0.84
298.15 K, 25076 kPa	816.275 ± 0.84
298.15 K, 27604 kPa	817.904 ± 0.85
298.15 K, 30046 kPa	819.519 ± 0.85
298.15 K, 32326 kPa	821.055 ± 0.85
298.15 K, 33317 kPa	821.248 ± 0.86
298.15 K, 44911 kPa	827.946 ± 0.88
298.15 K, 60006 kPa	836.063 ± 0.91
298.15 K, 62079 kPa	837.121 ± 0.92
298.15 K, 65330 kPa	838.566 ± 0.93
298.15 K, 66093 kPa	839.052 ± 0.93
298.16 K, 1152.2 kPa	799.011 ± 0.81
298.16 K, 2046.3 kPa	799.798 ± 0.81
298.16 K, 3021.1 kPa	800.42 ± 0.81
298.16 K, 5107.4 kPa	801.927 ± 0.81
298.16 K, 9044.3 kPa	804.777 ± 0.82
298.16 K, 9996.8 kPa	805.681 ± 0.82
298.16 K, 11947 kPa	807.14 ± 0.82
298.16 K, 33072 kPa	821.357 ± 0.86
298.16 K, 34997 kPa	822.338 ± 0.86
298.16 K, 37948 kPa	823.936 ± 0.87
298.16 K, 39972 kPa	825.207 ± 0.87
298.16 K, 41983 kPa	826.345 ± 0.87
298.16 K, 48045 kPa	829.528 ± 0.89
298.16 K, 49997 kPa	830.783 ± 0.89
298.16 K, 52020 kPa	832.399 ± 0.9
298.16 K, 54851 kPa	833.381 ± 0.9
298.16 K, 57898 kPa	835.245 ± 0.91
303.15 K, 50.6 kPa	793.736 ± 0.81
303.15 K, 974.4 kPa	794.496 ± 0.81
303.15 K, 1922.5 kPa	795.367 ± 0.81
303.15 K, 9012.3 kPa	801.25 ± 0.82
303.15 K, 10062 kPa	802.346 ± 0.82
303.15 K, 14908 kPa	805.823 ± 0.83
303.15 K, 18109 kPa	808.133 ± 0.83
